We go through one compound from publication PMC8001788, “Decursin Alleviates Mechanical Allodynia in a Paclitaxel-Induced Neuropathic Pain Mouse Model” (Cells, 2021).

This assay has as its target transient receptor potential vanilloid 1 (TRPV1) (Homo sapiens, UniProt Q8NER1). In words: Fura-2 calcium imaging of capsaicin-induced Ca2+ in human TRPV1 stable HEK293 cells. The format is cell-based.

The structures appear in SMILES notation.

Sequence of transient receptor potential vanilloid 1 (TRPV1) (Q8NER1 whole entry): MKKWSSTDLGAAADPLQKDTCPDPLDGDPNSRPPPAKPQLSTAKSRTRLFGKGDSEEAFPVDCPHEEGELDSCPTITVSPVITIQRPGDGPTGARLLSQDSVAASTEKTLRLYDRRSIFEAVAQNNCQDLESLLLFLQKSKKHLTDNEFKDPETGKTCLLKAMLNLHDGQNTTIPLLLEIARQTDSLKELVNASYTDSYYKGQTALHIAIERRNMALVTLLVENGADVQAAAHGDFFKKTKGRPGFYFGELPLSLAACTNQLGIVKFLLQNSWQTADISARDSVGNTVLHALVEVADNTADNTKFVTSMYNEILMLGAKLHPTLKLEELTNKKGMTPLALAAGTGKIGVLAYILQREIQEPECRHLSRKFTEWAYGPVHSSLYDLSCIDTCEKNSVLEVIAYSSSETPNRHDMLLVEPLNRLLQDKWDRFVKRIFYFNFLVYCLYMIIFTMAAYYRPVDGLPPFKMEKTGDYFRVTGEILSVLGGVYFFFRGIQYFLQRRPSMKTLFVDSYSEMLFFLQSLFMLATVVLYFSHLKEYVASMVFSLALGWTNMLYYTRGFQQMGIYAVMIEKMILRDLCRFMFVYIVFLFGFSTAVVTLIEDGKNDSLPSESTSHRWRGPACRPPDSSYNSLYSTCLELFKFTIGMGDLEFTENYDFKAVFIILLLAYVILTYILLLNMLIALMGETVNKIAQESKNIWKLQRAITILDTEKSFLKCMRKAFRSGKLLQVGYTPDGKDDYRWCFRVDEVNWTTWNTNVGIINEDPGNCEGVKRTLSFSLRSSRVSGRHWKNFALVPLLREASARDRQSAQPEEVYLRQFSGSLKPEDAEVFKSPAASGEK

The term IC50 denotes the concentration needed to halve the response being measured. Turning to `CC(C)=CC(=O)O[C@H]1Cc2cc3ccc(=O)oc3cc2OC1(C)C` [decursin], the half-inhibitory concentration (IC50) is 690 ± 105 nM.
